From patent US12655116B2, “Substituted isophthalic acid diamides” (Bayer Aktiengesellschaft, priority 2020, dated 2026)

Assays:
[1] = tested on: PHBPU; assay: Post-emergence herbicidal action against PHBPU; type: in vivo, Pharbitis purpurea; conditions: for pest or weed control at 20 g/ha: Ipomoea purpurea, 504 h
Outline: (§1)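 Post-emergence greenhouse test; one-leaf stage, 2–3 wk post-sowing, sandy loam. Foliar spray of WP/EC in water, 600–800 l/ha, +0.2% wetting agent. Visual % action at ~3 wk vs untreated (100% = plants dead).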

[2] = tested on: AVEFA; assay: Pre-emergence herbicidal action against AVEFA; type: in vivo, Avena fatua; conditions: pre-emergence
Outline: (§2)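 Herbicidal effect was assessed 3 weeks after treatment by visual comparison with untreated controls, 100% denoting dead plants. Aqueous WP or EC preparations had been applied at 600 to 800 l/ha with 0.2% wetting agent to the soil covering freshly sown seeds.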

[3] = tested on: ECHCG; assay: Pre-emergence herbicidal action against ECHCG; type: in vivo, Echinochloa crus-galli
Outline: as §2

[4] = tested on: ABUTH; assay: Post-emergence herbicidal action against ABUTH; type: in vivo, Abutilon theophrasti; conditions: visual assessment about 3 weeks after treatment vs untreated controls; for pest or weed control at 5 g/ha / pest or weed control at 20 g/ha: Abutilon theophrasti, 504 h
Outline: as §1

[5] = tested on: ALOMY; assay: Post-emergence herbicidal action against ALOMY; type: in vivo, Alopecurus myosuroides; conditions: visual assessment about 3 weeks after treatment vs untreated controls
Outline: as §1

[6] = tested on: VIOTR; assay: Pre-emergence herbicidal action against VIOTR; type: in vivo, Viola tricolor; conditions: for pest or weed control at 20 g/ha / pest or weed control at 80 g/ha: Viola tricolor, 504 h
Outline: as §2

[7] = tested on: SETVI; assay: Post-emergence herbicidal action against SETVI; type: in vivo, Setaria viridis; conditions: for pest or weed control at 5 g/ha / pest or weed control at 20 g/ha: Setaria viridis, 504 h
Outline: as §1

[8] = tested on: ABUTH; assay: Pre-emergence herbicidal action against ABUTH; type: in vivo, Abutilon theophrasti
Outline: as §2

[9] = tested on: VERPE; assay: Pre-emergence herbicidal action against VERPE; type: in vivo, Veronica persica; conditions: dosage 80 g/ha
Outline: as §2

[10] = tested on: AVEFA; assay: Post-emergence herbicidal action against AVEFA; type: in vivo, Avena fatua; conditions: 20 g/ha, visual assessment about 3 weeks after treatment, 100% = plants have died, 0% = like control plants; for pest or weed control at 20 g/ha: Avena fatua, 504 h
Outline: as §1

[11] = tested on: AMARE; assay: Pre-emergence herbicidal action against AMARE; type: in vivo, Amaranthus retroflexus; conditions: for pest or weed control at 20 g/ha / pest or weed control at 80 g/ha: Amaranthus retroflexus, 504 h
Outline: as §2

[12] = tested on: MATIN; assay: Post-emergence herbicidal action against MATIN; type: in vivo, Matricaria inodora
Outline: as §1

[13] = tested on: DIGSA; assay: Post-emergence herbicidal action against DIGSA; type: in vivo, Digitaria sanguinalis; conditions: for pest or weed control at 5 g/ha / pest or weed control at 20 g/ha: Digitaria sanguinalis, 504 h
Outline: as §1

[14] = tested on: AMARE; assay: Post-emergence herbicidal action against AMARE; type: in vivo, Amaranthus retroflexus; conditions: 20 g/ha, visual assessment about 3 weeks after treatment, 100% = plants have died, 0% = like control plants; for pest or weed control at 20 g/ha: Amaranthus retroflexus, 504 h
Outline: as §1

[15] = tested on: MATIN; assay: Pre-emergence herbicidal action against MATIN; type: in vivo, Matricaria inodora; conditions: for pest or weed control at 20 g/ha / pest or weed control at 80 g/ha: Tripleurospermum inodorum, 504 h
Outline: as §2

[16] = tested on: ECHCG; assay: Post-emergence herbicidal action against ECHCG; type: in vivo, Echinochloa crus-galli; conditions: for pest or weed control at 5 g/ha / pest or weed control at 20 g/ha: Echinochloa crus-galli, 504 h
Outline: as §1

[17] = tested on: VERPE; assay: Post-emergence herbicidal action against VERPE; type: in vivo, Veronica persica; conditions: Veronica persica, 504 h, 20 g/ha
Outline: as §1

[18] = tested on: ALOMY; assay: Pre-emergence herbicidal action against ALOMY; type: in vivo, Alopecurus myosuroides; conditions: pre-emergence
Outline: as §2

[19] = tested on: POLCO; assay: Pre-emergence herbicidal action against POLCO; type: in vivo, Polygonum convolvulus; conditions: dosage 80 g/ha; for pest or weed control at 80 g/ha: Fallopia convolvulus, 504 h
Outline: as §2

[20] = tested on: DIGSA; assay: Pre-emergence herbicidal action against DIGSA; type: in vivo, Digitaria sanguinalis; conditions: Digitaria sanguinalis, 504 h; for pest or weed control at 80 g/ha: dosage 80 g/ha
Outline: as §2

[21] = tested on: VIOTR; assay: Post-emergence herbicidal action against VIOTR; type: in vivo, Viola tricolor; conditions: for pest or weed control at 5 g/ha / pest or weed control at 20 g/ha: Viola tricolor, 504 h
Outline: as §1

[22] = tested on: SETVI; assay: Pre-emergence herbicidal action against SETVI; type: in vivo, Setaria viridis; conditions: for pest or weed control at 20 g/ha / pest or weed control at 80 g/ha: Setaria viridis, 504 h; for pest or weed control at 20 g/ha: dosage 20 g/ha
Outline: as §2

[23] = tested on: PHBPU; assay: Pre-emergence herbicidal action against PHBPU; type: in vivo, Pharbitis purpurea; conditions: dosage 80 g/ha
Outline: as §2

[24] = Echinochloa crus-galli, 504 h, 80 g/ha
[25] = Alopecurus myosuroides, 504 h, dosage 20 g/ha
[26] = Abutilon theophrasti, 504 h, 80 g/ha, scored visually after 3 weeks vs untreated controls (100% = plants have died, 0% = like control plants)
[27] = 20 g/ha, scored visually after 3 weeks vs untreated controls, 100% = plants have died, 0% = like control plants
[28] = 80 g/ha, scored visually after 3 weeks vs untreated controls, 100% = plants have died, 0% = like control plants
[29] = Tripleurospermum inodorum, 504 h, dosage 20 g/ha
[30] = Alopecurus myosuroides, 504 h, 80 g/ha, scored visually after 3 weeks vs untreated controls (100% = plants have died, 0% = like control plants)
[31] = 80 g/ha, scored visually after 3 weeks vs untreated controls (100% = plants have died, 0% = like control plants)

CCNC(=O)c1c(C(F)F)ccc(C(=O)Nc2nnnn2C)c1Br [Example 1-226]
pest or weed control at 20 g/ha ([1]; dosage 20 g/ha): 80%
pest or weed control at 80 g/ha ([2]; Avena fatua, 504 h, 80 g/ha): 90%
pest or weed control at 20 g/ha ([2]; Avena fatua, 504 h, 20 g/ha, scored visually after 3 weeks, 100% = plants have died, 0% = like control plants): 80%
pest or weed control at 20 g/ha ([3]; Echinochloa crus-galli, 504 h, 20 g/ha): 80%
pest or weed control at 80 g/ha [3, 24]: 100%
pest or weed control at 5 g/ha ([4]; dosage 5 g/ha): 90%
pest or weed control at 20 g/ha ([4]; dosage 20 g/ha): 90%
pest or weed control at 5 g/ha ([5]; Alopecurus myosuroides, 504 h, dosage 5 g/ha): 80%
pest or weed control at 20 g/ha [5, 25]: 100%
pest or weed control at 20 g/ha ([6]; dosage 20 g/ha): 80%
pest or weed control at 80 g/ha ([6]; dosage 80 g/ha): 100%
pest or weed control at 5 g/ha ([7]; dosage 5 g/ha): 100%
pest or weed control at 20 g/ha ([7]; dosage 20 g/ha): 100%
pest or weed control at 80 g/ha [8, 26]: 90%
pest or weed control at 80 g/ha ([9]; Veronica persica, 504 h): 90%
pest or weed control at 20 g/ha [10]: 80%
pest or weed control at 20 g/ha [11, 27]: 100%
pest or weed control at 80 g/ha [11, 28]: 100%
pest or weed control at 20 g/ha [12, 29]: 80%
pest or weed control at 5 g/ha ([13]; 5 g/ha): 90%
pest or weed control at 20 g/ha ([13]; 20 g/ha): 100%
pest or weed control at 20 g/ha [14]: 100%
pest or weed control at 20 g/ha ([15]; dosage 20 g/ha): 100%
pest or weed control at 80 g/ha ([15]; dosage 80 g/ha): 100%
pest or weed control at 5 g/ha ([16]; dosage 5 g/ha): 100%
pest or weed control at 20 g/ha ([16]; dosage 20 g/ha): 100%
pest or weed control at 20 g/ha [17]: 90%
pest or weed control at 80 g/ha [18, 30]: 90%
pest or weed control at 80 g/ha [19]: 90%
pest or weed control at 80 g/ha [20]: 90%
pest or weed control at 5 g/ha [21]: 100%
pest or weed control at 20 g/ha ([21]; 20 g/ha): 100%
pest or weed control at 20 g/ha [22]: 100%
pest or weed control at 80 g/ha ([22]; dosage 80 g/ha): 100%

CCn1nnnc1NC(=O)c1ccc(C(F)(F)F)c(C(=O)NC2CC2)c1OC [Example 2-58]
pest or weed control at 20 g/ha ([1]; dosage 20 g/ha): 90%
pest or weed control at 80 g/ha ([2]; Avena fatua, 504 h, 80 g/ha): 90%
pest or weed control at 80 g/ha [3, 24]: 100%
pest or weed control at 5 g/ha ([4]; dosage 5 g/ha): 100%
pest or weed control at 20 g/ha ([4]; dosage 20 g/ha): 100%
pest or weed control at 20 g/ha [5, 25]: 80%
pest or weed control at 20 g/ha ([6]; dosage 20 g/ha): 100%
pest or weed control at 80 g/ha ([6]; dosage 80 g/ha): 100%
pest or weed control at 5 g/ha ([7]; dosage 5 g/ha): 90%
pest or weed control at 20 g/ha ([7]; dosage 20 g/ha): 100%
pest or weed control at 80 g/ha [8, 26]: 100%
pest or weed control at 20 g/ha ([8]; Abutilon theophrasti, 504 h, dosage 20 g/ha, scored visually after 3 weeks vs untreated controls, 100% = plants have died, 0% = like control plants, read-out: Pre-emergence action against ABUTH (herbicidal activity in percent)): 100%
pest or weed control at 20 g/ha [10]: 80%
pest or weed control at 20 g/ha [11, 27]: 100%
pest or weed control at 80 g/ha [11, 28]: 100%
pest or weed control at 5 g/ha ([12]; Tripleurospermum inodorum, 504 h, dosage 5 g/ha): 80%
pest or weed control at 20 g/ha [12, 29]: 90%
pest or weed control at 5 g/ha ([13]; 5 g/ha): 100%
pest or weed control at 20 g/ha ([13]; 20 g/ha): 100%
pest or weed control at 20 g/ha [14]: 100%
pest or weed control at 20 g/ha ([15]; dosage 20 g/ha): 100%
pest or weed control at 80 g/ha ([15]; dosage 80 g/ha): 100%
pest or weed control at 5 g/ha ([16]; dosage 5 g/ha): 90%
pest or weed control at 20 g/ha ([16]; dosage 20 g/ha): 100%
pest or weed control at 80 g/ha ([23]; Ipomoea purpurea, 504 h): 90%
pest or weed control at 80 g/ha [18, 30]: 100%
pest or weed control at 20 g/ha ([18]; Alopecurus myosuroides, 504 h, 20 g/ha, scored visually after 3 weeks, 100% = plants have died, 0% = like control plants): 90%
pest or weed control at 80 g/ha [19]: 80%
pest or weed control at 20 g/ha ([20]; dosage 20 g/ha): 100%
pest or weed control at 80 g/ha [20]: 100%
pest or weed control at 5 g/ha [21]: 100%
pest or weed control at 20 g/ha ([21]; 20 g/ha): 100%
pest or weed control at 20 g/ha [22]: 100%
pest or weed control at 80 g/ha ([22]; dosage 80 g/ha): 100%

CCNC(=O)c1c(C(F)(F)F)ccc(C(=O)Nc2nnnn2CC)c1CC [Example 2-272]
Post-emergence action against PHBPU in % ([1]; dosage 5 g/ha): 90%
Post-emergence action against PHBPU in % ([1]; dosage 20 g/ha): 100%
Pre-emergence action against AVEFA in % ([2]; 80 g/ha): 80%
Pre-emergence action against ECHCG in % ([3]; 80 g/ha): 100%
Post-emergence action against ABUTH in % ([4]; dosage 5 g/ha): 90%
Post-emergence action against ABUTH in % ([4]; dosage 20 g/ha): 90%
Post-emergence action against ALOMY in % ([5]; dosage 20 g/ha): 90%
Pre-emergence action against VIOTR in % ([6]; dosage 20 g/ha): 90%
Pre-emergence action against VIOTR in % ([6]; dosage 80 g/ha): 100%
Post-emergence action against SETVI in % ([7]; dosage 5 g/ha): 90%
Post-emergence action against SETVI in % ([7]; dosage 20 g/ha): 100%
Pre-emergence action against ABUTH (herbicidal activity) [8, 31]: 100%
Pre-emergence action against ABUTH (herbicidal activity in percent) ([8]; dosage 20 g/ha, scored visually after 3 weeks vs untreated controls, 100% = plants have died, 0% = like control plants): 100%
Pre-emergence action against VERPE in % [9]: 90%
Post-emergence action at 20 g/ha against AVEFA in % [10]: 80%
Pre-emergence action against AMARE in % [11, 27]: 100%
Pre-emergence action against AMARE in % [11, 31]: 100%
Post-emergence action against MATIN in % ([12]; dosage 5 g/ha): 80%
Post-emergence action against MATIN in % ([12]; dosage 20 g/ha): 80%
Post-emergence action against DIGSA in % ([13]; 5 g/ha): 90%
Post-emergence action against DIGSA ([13]; 20 g/ha): 90%
Post-emergence action at 20 g/ha against AMARE in % [14]: 100%
Pre-emergence action against MATIN in % ([15]; dosage 20 g/ha): 100%
Pre-emergence action against MATIN in % ([15]; dosage 80 g/ha): 100%
Post-emergence action against ECHCG in % ([16]; dosage 5 g/ha): 80%
Post-emergence action against ECHCG in % ([16]; dosage 20 g/ha): 90%
Pre-emergence action against PHBPU in % [23]: 80%
Pre-emergence action against ALOMY (herbicidal activity) [18, 31]: 90%
Pre-emergence action against POLCO in % [19]: 80%
Post-emergence action against VIOTR in % ([21]; 20 g/ha): 80%
Pre-emergence action against SETVI in % ([22]; dosage 80 g/ha): 100%
